Results published in PMC6572064, “Discovery of 2-(1-(3-(4-Chloroxyphenyl)-3-oxo- propyl)pyrrolidine-3-yl)-1H-benzo[d]imidazole-4-carboxamide: A Potent Poly(ADP-ribose) Polymerase (PARP) Inhibitor for Treatment of Cancer” (Molecules, 2019).
Where two headings read alike, the source gives them in different places.

Assays:
PARP-1 = target: T1, PARP-1 (Homo sapiens, UniProt P09874); assay: PARP-1 inhibition assay (PARP-1 Chemiluminescent Assay Kit, BPS Bioscience); format: biochemical; conditions: 10 nM compound
T1 construct: purchased BPS Bioscience 80569
Protocol: (§1) The PARP-1 and PARP-2 inhibition assays were performed in outsourcing, by a CRO company, Shanghai Medicilon Inc. (Shanghai, China). […] Briefly, PARP-1 or PARP-2 biotinylated substrate was incubated with compounds or solvent control at varying concentrations and an assay buffer containing the PARP-1 or PARP-2 enzyme.

PARP-2 = target: T2, PARP-2 (Homo sapiens, UniProt Q9UGN5); assay: PARP-2 inhibition assay (PARP-2 Chemiluminescent Assay Kit, BPS Bioscience); format: biochemical; conditions: 10 nM compound
T2 construct: purchased BPS Bioscience 80552
Protocol: as §1

[1] = system: CAPAN-1 (a BRCA-2-mutated pancreatic cancer cell line); assay: Cell proliferation assay, three-day, CellTiter-Glo, CAPAN-1; format: cell-based; conditions: for inhibition at 0.00508 µM: CAPAN-1, 0.00508 uM; for inhibition at 0.0152 µM: CAPAN-1, 0.0152 uM; for inhibition at 0.0457 µM: CAPAN-1, 0.0457 uM; for inhibition at […]: CAPAN-1, 0.14 uM; for inhibition at 0.41 µM: CAPAN-1, 0.41 uM; for inhibition at 1.23 µM: CAPAN-1, 1.23 uM; for inhibition at 3.7 µM: CAPAN-1, 3.70 uM; for inhibition at 11.11 µM: CAPAN-1, Conc. 11.11 uM; for inhibition at 33.33 µM: CAPAN-1, Conc. 33.33 uM; for inhibition at 100 µM: CAPAN-1, Conc. 100.00 uM
Protocol: (§2) A three-day assay was conducted. A cell suspension was prepared. Cell density was counted by an automated cell counter and then diluted to the required density, according to seeding density. 50 μL cells were seeded into 384-well plate in growth medium according to the plate map. The cells were incubated at 37 °C, 5% CO2 overnight.
(§3) 200× compound solution in DMSO was prepared and diluted with growth medium to 26× final concentration by addition of 26 μL 200× compounds to 174 μL growth medium. Then 2 μL of diluted compound solution was added to cells and the cell was incubated at 37 °C, 5% CO2 for 72 h.
(§4) The assay plate was equilibrated to room temperature prior to measurement. 15 μL of CellTiter-Glo Reagent was added into each well and the contents were mixed for 2 min on an orbital shaker to induce cell lysis. The cells were incubated at room temperature for 60 min to stabilize luminescent signal. Luminescence was recorded on the Envision system.

[2] = system: MDA-MB-436 (a BRCA-1-mutated breast cancer cell line); assay: Cell proliferation assay, three-day, CellTiter-Glo, MDA-MB-436; format: cell-based; conditions: for inhibition at 0.00508 µM: MDA-MB-436, MDA-MB-436, Conc. 0.00508 uM; for inhibition at 0.0152 µM: MDA-MB-436, MDA-MB-436, Conc. 0.0152 uM; for inhibition at 0.0457 µM: MDA-MB-436, MDA-MB-436, Conc. 0.0457 uM; for inhibition at 0.41 µM: MDA-MB-436, MDA-MB-436, Conc. 0.41 uM; for inhibition at 1.23 µM: MDA-MB-436, MDA-MB-436, Conc. 1.23 uM; for inhibition at 3.7 µM: MDA-MB-436, MDA-MB-436, Conc. 3.70 uM
Protocol: as §2, §3, §4

[3] = CAPAN-1, curve fit of Inh %, plate 1
[4] = Homo sapiens, replicate 1, read-out: Inh % 1
[5] = Homo sapiens, replicate 2, read-out: Inh % 2

T2 sequence (Q9UGN5 whole entry): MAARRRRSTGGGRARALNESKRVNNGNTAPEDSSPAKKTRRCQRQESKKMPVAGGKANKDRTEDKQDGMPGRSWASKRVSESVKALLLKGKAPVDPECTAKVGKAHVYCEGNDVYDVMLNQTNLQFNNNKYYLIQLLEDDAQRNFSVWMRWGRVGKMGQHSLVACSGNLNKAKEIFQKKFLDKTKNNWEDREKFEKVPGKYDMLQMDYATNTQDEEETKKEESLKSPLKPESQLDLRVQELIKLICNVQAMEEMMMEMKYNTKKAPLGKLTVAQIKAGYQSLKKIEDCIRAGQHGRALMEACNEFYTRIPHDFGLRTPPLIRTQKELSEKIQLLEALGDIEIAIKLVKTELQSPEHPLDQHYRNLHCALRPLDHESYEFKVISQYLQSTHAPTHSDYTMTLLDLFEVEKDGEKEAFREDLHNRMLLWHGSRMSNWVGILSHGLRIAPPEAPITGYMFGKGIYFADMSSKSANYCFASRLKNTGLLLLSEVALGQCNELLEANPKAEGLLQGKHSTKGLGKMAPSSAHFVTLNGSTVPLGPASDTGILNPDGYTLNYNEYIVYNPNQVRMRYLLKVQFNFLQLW
T1 sequence (P09874 whole entry): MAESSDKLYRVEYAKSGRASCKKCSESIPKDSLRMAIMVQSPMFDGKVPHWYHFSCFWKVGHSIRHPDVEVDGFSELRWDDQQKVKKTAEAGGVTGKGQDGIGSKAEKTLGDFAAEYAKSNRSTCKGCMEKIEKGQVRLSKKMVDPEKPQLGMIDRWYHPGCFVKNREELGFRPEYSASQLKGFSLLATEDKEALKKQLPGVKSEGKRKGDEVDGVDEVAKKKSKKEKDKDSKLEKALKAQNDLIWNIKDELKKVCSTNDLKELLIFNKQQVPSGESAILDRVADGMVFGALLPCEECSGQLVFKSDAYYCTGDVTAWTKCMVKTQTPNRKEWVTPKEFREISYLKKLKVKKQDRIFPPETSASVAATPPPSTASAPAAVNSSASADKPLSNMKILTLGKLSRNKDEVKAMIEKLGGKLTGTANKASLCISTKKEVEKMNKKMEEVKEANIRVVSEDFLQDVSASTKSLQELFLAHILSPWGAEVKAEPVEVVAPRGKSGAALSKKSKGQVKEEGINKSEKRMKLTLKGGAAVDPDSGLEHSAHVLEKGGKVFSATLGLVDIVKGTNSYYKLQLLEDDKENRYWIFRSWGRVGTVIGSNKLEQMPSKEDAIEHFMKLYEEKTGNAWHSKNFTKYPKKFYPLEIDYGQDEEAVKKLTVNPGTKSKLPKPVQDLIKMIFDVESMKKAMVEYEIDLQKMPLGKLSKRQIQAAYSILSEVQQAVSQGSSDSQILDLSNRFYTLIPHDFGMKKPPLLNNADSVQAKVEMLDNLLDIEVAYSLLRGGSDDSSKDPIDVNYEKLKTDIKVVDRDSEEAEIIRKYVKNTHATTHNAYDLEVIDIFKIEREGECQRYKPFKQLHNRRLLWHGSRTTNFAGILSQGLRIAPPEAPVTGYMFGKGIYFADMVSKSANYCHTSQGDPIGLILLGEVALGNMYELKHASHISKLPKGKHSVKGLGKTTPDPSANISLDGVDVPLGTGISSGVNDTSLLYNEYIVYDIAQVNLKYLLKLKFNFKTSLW

Question: Which inhibition at 0.01 µM (PARP-1; supplement sheet, read-out: 10 nM inhibition% PAPR-1) does the source give for `NC(=O)c1cccc2[nH]c(C3CCN(CC(=O)Nc4ccccc4)C3)nc12` (centres unmarked) [Compound 5ca, 2-(1-(2-Oxo-2-(phenylamino)ethyl)pyrrolidin-3-yl)-1H-benzo[d]imidazole-4-carboxamide] here?
Answer: 17.6%

Question: What about the inhibition at 0.01 µM (PARP-1; read-out: PARP-1 Inhibition % (10 nM)) of the same compound?
Answer: 17.6%

Question: What about the inhibition at 0.01 µM (PARP-2; supplement sheet, read-out: 10 nM inhibition% PAPR-2) of the same compound?
Answer: 34.5%

Question: And the inhibition at 0.01 µM (PARP-2; read-out: PARP-2 Inhibition % (10 nM))?
Answer: 34.5%

Question: What about the Bottom [1, 3] of the same compound?
Answer: 11.48

Question: And the HillSlope [1, 3]?
Answer: 1.045

Question: And the Top [1, 3]?
Answer: = 100.0

Question: What about the LogIC50 ([1]; CAPAN-1, curve fit, plate 1) of the same compound?
Answer: 2.027 Log (uM)

Question: What about the IC50 ([1]; Homo sapiens, CAPAN-1, 72 h, CellTiter-Glo, read-out: CAPAN-1 IC50) of the same compound?
Answer: > 100 µM

Question: And the inhibition at 0.00508 µM [1, 4]?
Answer: -2.6%

Question: And the inhibition at 0.00508 µM [1, 5]?
Answer: 19.1%

Question: And the inhibition at 0.0152 µM [1, 4]?
Answer: -2.3%

Question: And the inhibition at 0.0152 µM [1, 5]?
Answer: 9.8%

Question: What about the inhibition at 0.0457 µM [1, 4] of the same compound?
Answer: 6.6%

Question: What about the inhibition at 0.0457 µM [1, 5] of the same compound?
Answer: 22%

Question: What about the inhibition at […] [1, 4] of the same compound?
Answer: 7.4%

Question: What about the inhibition at […] [1, 5] of the same compound?
Answer: 15.6%

Question: What about the inhibition at 0.41 µM [1, 4] of the same compound?
Answer: 22.5%

Question: And the inhibition at 0.41 µM [1, 5]?
Answer: 10.9%

Question: And the inhibition at 1.23 µM [1, 4]?
Answer: 21.1%

Question: And the inhibition at 1.23 µM [1, 5]?
Answer: 9.6%

Question: And the inhibition at 3.7 µM [1, 4]?
Answer: 8.2%

Question: And the inhibition at 3.7 µM [1, 5]?
Answer: 19.9%

Question: What about the inhibition at 11.11 µM [1, 4] of the same compound?
Answer: 22.1%

Question: And the inhibition at 11.11 µM [1, 5]?
Answer: 20.4%

Question: What about the inhibition at 33.33 µM [1, 4] of the same compound?
Answer: 29.2%

Question: And the inhibition at 33.33 µM [1, 5]?
Answer: 28.3%

Question: And the inhibition at 100 µM [1, 4]?
Answer: 59.9%

Question: What about the inhibition at 100 µM [1, 5] of the same compound?
Answer: 51.1%

Question: What about the inhibition at 0.00508 µM [2, 4] of the same compound?
Answer: -8.8%

Question: And the inhibition at 0.00508 µM [2, 5]?
Answer: -5.8%

Question: And the inhibition at 0.0152 µM [2, 4]?
Answer: -0.8%

Question: What about the inhibition at 0.0152 µM [2, 5] of the same compound?
Answer: -6.8%

Question: And the inhibition at 0.0457 µM [2, 4]?
Answer: -1.6%

Question: What about the inhibition at 0.0457 µM [2, 5] of the same compound?
Answer: -6.8%

Question: And the inhibition at 0.41 µM [2, 4]?
Answer: 2.8%

Question: And the inhibition at 0.41 µM [2, 5]?
Answer: -7.6%

Question: And the inhibition at 1.23 µM [2, 4]?
Answer: 5.5%

Question: And the inhibition at 1.23 µM [2, 5]?
Answer: -1.8%

Question: And the inhibition at 3.7 µM [2, 4]?
Answer: 10.4%

Question: What about the inhibition at 3.7 µM [2, 5] of the same compound?
Answer: 0.639%

Question: And the inhibition at 11.11 µM ([2]; Homo sapiens, MDA-MB-436, MDA-MB-436, Conc. 11.11 uM, duplicate wells (Inh % 1, Inh % 2), read-out: Inh %)?
Answer: 15.1%

Question: What about the inhibition at 33.33 µM ([2]; Homo sapiens, MDA-MB-436, MDA-MB-436, Conc. 33.33 uM, duplicate wells (Inh % 1, Inh % 2), read-out: Inh %) of the same compound?
Answer: 68.9%

Question: What about the inhibition at 100 µM ([2]; Homo sapiens, MDA-MB-436, MDA-MB-436, Conc. 100.00 uM, duplicate wells (Inh % 1, Inh % 2), read-out: Inh %) of the same compound?
Answer: 93.3%

Question: And the IC50 ([2]; Homo sapiens, MDA-MB-436, 72 h, CellTiter-Glo, read-out: MDA-MB-436 IC50)?
Answer: 22.9 µM

Question: And the IC50 ([2]; Homo sapiens, MDA-MB-436, 72 h, supplement Summary sheet, read-out: IC50)?
Answer: 22.9 µM

Question: What about the IC50 ([2]; Homo sapiens, MDA-MB-436, curve fit list, no unit in the cell, concentration in uM, read-out: IC50) of the same compound?
Answer: 22.9 µM

Question: And the Inh % ([2]; MDA-MB-436, Conc. 11.11 uM, duplicate wells (Inh % 1, Inh % 2))?
Answer: 9.5%

Question: What about the Inh % ([2]; MDA-MB-436, Conc. 33.33 uM, duplicate wells (Inh % 1, Inh % 2)) of the same compound?
Answer: 56.4%

Question: And the Inh % ([2]; MDA-MB-436, Conc. 100.00 uM, duplicate wells (Inh % 1, Inh % 2))?
Answer: 81.3%

Question: And the Bottom ([2]; MDA-MB-436, curve fit parameter (Inh %))?
Answer: -3.40

Question: What about the Top ([2]; MDA-MB-436, curve fit parameter (Inh %), '= 100.0' is a constrained value) of the same compound?
Answer: 92.23

Question: And the LogIC50 ([2]; MDA-MB-436, curve fit, concentration axis Log (uM))?
Answer: 1.36
